Tested on: MuRF-1
Assay: MuRF-1 mRNA expression by RT-PCR in TNF-α-treated L6 muscle cells
Assay type: cell-based
Settings: differentiated L6 muscle cells, 50 ng/mL TNF-α
Protocol: L6 myoblast (ATCC) was added to a 6-well plate at 2×10^5 cells/ml together with DMEM (Hyclone) containing 10% FBS (Hyclone). When the cell density reached about 80% to 85%, the medium in the wells was removed and myotube differentiation was induced by treating the cells with DMEM (Hyclone) containing 2% HS (Hyclone). The medium was replaced with fresh medium every two days and the differentiation was carried out for a total of 6 days. After differentiation, 0.1 μM and 1 μM of morusin prepared in Example 2-1 were respectively dissolved in DMEM (Hyclone) containing 50 ng/mL tumor necrosis factor alph (TNF-α; PeproTech, Rocky Hills, N.J., USA), followed by their treatment on the cells. After 6 hours, total RNA was isolated using TRIzol reagent (Invitrogen). The isolated total RNA was quantified using NanoDrop 1000 (Thermo Fisher Scientific Inc.). The quantified 16 μL of RNA was synthesized into cDNA using Reverse Transcriptase Premix (ELPIS-Biotech) and PCR machine (Gene Amp PCR System 2700: Applied Biosystems) at 42° C. for 55 minutes and at 70° C. for 15 minutes. The PCR was performed by repeating 30 cycles at 95° C. for 30 seconds, at 60° C. for 1 minute and at 72° C. for 1 minute with 4 μl of 16 μl cDNA, the following specific primers (Bioneer), and PCR premix (ELPIS-Biotech): […]

SMILES	mRNA expression of MuRF-1 (concentration not given)	mRNA expression of MuRF-1 (0.1 μM and 1 μM, 6 hours)
CC(C)=CCc1c(-c2ccc(O)cc2O)oc2c([C@H]3C=C(C)C[C@@H](c4ccc(O)cc4O)[C@@H]3C(=O)c3ccc(O)cc3O)c(O)cc(O)c2c1=O [Kuwanon G, 8-[(1S,5R,6S)-6-(2,4-Dihydroxybenzoyl)-5-(2,4-dihydroxyphenyl)-3-methyl-2-cyclohexen-1-yl]-2-(2,4-dihydroxyphenyl)-5,7-dihydroxy-3-(3-methyl-2-buten-1-yl)-4H-chromen-4-one]	decreased	
CC(C)=CCc1c(-c2ccc(O)cc2O)oc2c3c(cc(O)c2c1=O)OC(C)(C)C=C3 [Morusin, 2-(2,4-Dihydroxyphenyl)-5-hydroxy-8,8-dimethyl-3-(3-methyl-2-buten-1-yl)-4H,8H-benzo[1,2-b:3,4-b′]dipyran-4-one]		decreased

Reference: US10576057B2, “Methods for treating muscle wasting and degeneration diseases” (NEWTREE CO., LTD., priority 2015, dated 2020)
